Measurements taken from publication PMC7265341, “Quantifying CDK inhibitor selectivity in live cells” (Nature Communications, 2020).
Values joined by “and” are separate entries in the source; they are usually repeats but may differ in a detail not shown here. Equal entries are not always repeated. Where two headings read alike, the source gives them in different places.

Experiments:
CDK7 = CDK7 (Homo sapiens, UniProt P50613); experiment: NanoBRET live-cell target engagement, NanoLuc-CDK7 in HEK-293; assay type: binding; conditions: CDK7; for IC50: read-out: IC50
CDK2/Cyclin E1 = CDK2/Cyclin E1 (Homo sapiens, UniProt P24941); experiment: NanoBRET live-cell target engagement, CDK2-NanoLuc/Cyclin E1 in HEK-293; assay type: binding; conditions: 10 µM
CDK6/Cyclin D1 = CDK6/Cyclin D1 (Homo sapiens, UniProt Q00534); experiment: NanoBRET live-cell target engagement, NanoLuc-CDK6/Cyclin D1 in HEK-293; assay type: binding; conditions: CDK6/D1; for IC50: read-out: IC50
CDK8/Cyclin C = CDK8/Cyclin C (Homo sapiens, UniProt P49336); experiment: NanoBRET live-cell target engagement, NanoLuc-CDK8/Cyclin C in HEK-293; assay type: binding; conditions: CDK8/C
CDK5/CDK5R1 = CDK5/CDK5R1 (Homo sapiens, UniProt Q00535); experiment: NanoBRET live-cell target engagement, CDK5-NanoLuc/CDK5R1 in HEK-293; assay type: binding; conditions: CDK5/CDK5R1; for IC50: read-out: IC50
CDK12/Cyclin K = CDK12/Cyclin K (Homo sapiens, UniProt Q9NYV4); experiment: NanoBRET live-cell target engagement, CDK12-NanoLuc/Cyclin K in HEK-293; assay type: binding; conditions: CDK12/K
CDK4/Cyclin D1 = CDK4/Cyclin D1 (Homo sapiens, UniProt P11802); experiment: NanoBRET live-cell target engagement, NanoLuc-CDK4/Cyclin D1 in HEK-293; assay type: binding; conditions: CDK4/D1; for IC50: read-out: IC50
CDK19/Cyclin C = CDK19/Cyclin C (Homo sapiens, UniProt Q9BWU1); experiment: NanoBRET live-cell target engagement, NanoLuc-CDK19/Cyclin C in HEK-293; conditions: CDK19/C
CDK15/Cyclin Y = CDK15/Cyclin Y (Homo sapiens, UniProt Q96Q40); experiment: NanoBRET live-cell target engagement, NanoLuc-CDK15/Cyclin Y in HEK-293; assay type: binding; conditions: CDK15/Y; for IC50: read-out: IC50
CDK16/Cyclin Y = CDK16/Cyclin Y (Homo sapiens, UniProt Q00536); experiment: NanoBRET live-cell target engagement, CDK16-NanoLuc/Cyclin Y in HEK-293; assay type: binding; conditions: CDK16/Y; for IC50: read-out: IC50
CDK17/Cyclin Y = CDK17/Cyclin Y (Homo sapiens, UniProt Q00537); experiment: NanoBRET live-cell target engagement, CDK17-NanoLuc/Cyclin Y in HEK-293; assay type: binding; conditions: CDK17/Y; for IC50: read-out: IC50
CDK10/Cyclin L2 = CDK10/Cyclin L2 (Homo sapiens, UniProt Q15131); experiment: NanoBRET live-cell target engagement, CDK10-NanoLuc/Cyclin L2 in HEK-293; conditions: CDK10/L2
CDK18/Cyclin Y = CDK18/Cyclin Y (Homo sapiens, UniProt Q07002); experiment: NanoBRET live-cell target engagement, CDK18-NanoLuc/Cyclin Y in HEK-293; assay type: binding; conditions: CDK18/Y; for IC50: read-out: IC50
CDK11B/Cyclin L2 = CDK11B/Cyclin L2 (Homo sapiens, UniProt P21127); experiment: NanoBRET live-cell target engagement, CDK11B-NanoLuc/Cyclin L2 in HEK-293; assay type: binding; conditions: CDK11b/L2; for IC50: read-out: IC50
CDK1/Cyclin E1 = CDK1/Cyclin E1 (Homo sapiens, UniProt P06493); experiment: NanoBRET live-cell target engagement, CDK1-NanoLuc/Cyclin E1 in HEK-293; assay type: binding; conditions: CDK1/E1; for IC50: read-out: IC50
CDK3/Cyclin E1 = CDK3/Cyclin E1 (Homo sapiens, UniProt Q00526); experiment: NanoBRET live-cell target engagement, CDK3-NanoLuc/Cyclin E1 in HEK-293; assay type: binding
CDK20/Cyclin H = CDK20/Cyclin H (Homo sapiens, UniProt Q8IZL9); experiment: NanoBRET live-cell target engagement, NanoLuc-CDK20/Cyclin H in HEK-293; assay type: binding; conditions: CDK20/H
CDK14/Cyclin Y = CDK14/Cyclin Y (Homo sapiens, UniProt O94921); experiment: NanoBRET live-cell target engagement, CDK14-NanoLuc/Cyclin Y in HEK-293; assay type: binding; conditions: CDK14/Y; for IC50: read-out: IC50
CDK13/Cyclin K = CDK13/Cyclin K (Homo sapiens, UniProt Q14004); experiment: NanoBRET live-cell target engagement, CDK13-NanoLuc/Cyclin K in HEK-293; assay type: binding; conditions: CDK13/K

Sequence of CDK1/Cyclin E1 (P06493 whole entry): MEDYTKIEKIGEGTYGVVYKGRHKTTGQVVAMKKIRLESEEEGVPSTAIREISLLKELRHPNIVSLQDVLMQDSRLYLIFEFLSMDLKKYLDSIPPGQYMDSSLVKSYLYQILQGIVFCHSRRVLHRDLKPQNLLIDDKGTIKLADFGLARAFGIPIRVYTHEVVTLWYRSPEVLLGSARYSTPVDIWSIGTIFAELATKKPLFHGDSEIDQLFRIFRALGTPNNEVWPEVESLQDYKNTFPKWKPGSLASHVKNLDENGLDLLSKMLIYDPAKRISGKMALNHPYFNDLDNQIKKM
Sequence of CDK1/Cyclin E1 (P24864 whole entry partner): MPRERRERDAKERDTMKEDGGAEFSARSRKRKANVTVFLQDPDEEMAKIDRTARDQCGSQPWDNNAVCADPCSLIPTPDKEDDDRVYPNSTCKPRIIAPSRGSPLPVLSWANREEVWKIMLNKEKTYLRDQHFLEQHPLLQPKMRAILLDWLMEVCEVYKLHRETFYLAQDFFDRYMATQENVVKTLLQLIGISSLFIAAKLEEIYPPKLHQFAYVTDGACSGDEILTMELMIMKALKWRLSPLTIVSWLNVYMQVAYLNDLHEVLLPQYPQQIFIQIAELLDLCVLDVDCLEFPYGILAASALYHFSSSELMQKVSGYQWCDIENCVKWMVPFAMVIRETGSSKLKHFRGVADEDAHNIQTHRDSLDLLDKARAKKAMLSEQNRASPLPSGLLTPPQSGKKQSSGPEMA
Sequence of CDK18/Cyclin Y (Q07002 whole entry): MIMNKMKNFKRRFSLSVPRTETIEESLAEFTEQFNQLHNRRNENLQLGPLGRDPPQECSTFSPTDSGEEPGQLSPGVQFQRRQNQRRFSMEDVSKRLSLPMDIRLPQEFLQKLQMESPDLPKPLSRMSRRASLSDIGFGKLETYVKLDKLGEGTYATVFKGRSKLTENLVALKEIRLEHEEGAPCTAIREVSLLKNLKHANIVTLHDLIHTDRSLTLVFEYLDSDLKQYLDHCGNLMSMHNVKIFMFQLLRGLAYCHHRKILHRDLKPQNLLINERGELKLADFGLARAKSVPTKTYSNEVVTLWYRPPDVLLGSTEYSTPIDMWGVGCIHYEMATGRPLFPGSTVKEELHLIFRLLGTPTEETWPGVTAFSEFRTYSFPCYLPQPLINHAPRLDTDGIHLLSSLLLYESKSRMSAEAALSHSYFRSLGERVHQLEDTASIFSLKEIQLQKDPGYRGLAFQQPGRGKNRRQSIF
Sequence of CDK18/Cyclin Y (Q8ND76 whole entry partner): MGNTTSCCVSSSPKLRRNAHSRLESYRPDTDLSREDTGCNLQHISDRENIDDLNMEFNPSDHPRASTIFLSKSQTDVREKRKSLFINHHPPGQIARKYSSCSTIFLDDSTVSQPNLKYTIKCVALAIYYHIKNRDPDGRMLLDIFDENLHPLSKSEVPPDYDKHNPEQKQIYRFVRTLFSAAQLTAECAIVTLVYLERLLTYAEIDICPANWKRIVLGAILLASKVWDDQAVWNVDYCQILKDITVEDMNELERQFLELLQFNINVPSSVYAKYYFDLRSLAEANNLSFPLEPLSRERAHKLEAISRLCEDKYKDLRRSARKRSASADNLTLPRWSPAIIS
Sequence of CDK14/Cyclin Y (O94921 whole entry): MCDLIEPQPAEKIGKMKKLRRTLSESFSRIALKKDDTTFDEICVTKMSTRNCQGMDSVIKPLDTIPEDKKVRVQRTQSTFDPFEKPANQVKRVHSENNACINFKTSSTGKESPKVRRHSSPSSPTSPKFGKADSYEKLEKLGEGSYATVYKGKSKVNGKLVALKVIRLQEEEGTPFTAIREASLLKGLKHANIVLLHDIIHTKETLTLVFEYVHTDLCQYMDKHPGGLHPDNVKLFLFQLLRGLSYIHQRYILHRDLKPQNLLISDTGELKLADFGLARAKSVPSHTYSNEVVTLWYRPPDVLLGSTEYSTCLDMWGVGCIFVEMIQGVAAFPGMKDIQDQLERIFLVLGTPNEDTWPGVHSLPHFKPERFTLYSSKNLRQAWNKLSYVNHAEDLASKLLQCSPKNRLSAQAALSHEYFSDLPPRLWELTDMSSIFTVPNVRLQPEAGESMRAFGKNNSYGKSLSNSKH
Sequence of CDK14/Cyclin Y (Q8ND76 whole entry partner): as the sequence (Q8ND76 whole entry partner) above
Sequence of CDK17/Cyclin Y (Q00537 whole entry): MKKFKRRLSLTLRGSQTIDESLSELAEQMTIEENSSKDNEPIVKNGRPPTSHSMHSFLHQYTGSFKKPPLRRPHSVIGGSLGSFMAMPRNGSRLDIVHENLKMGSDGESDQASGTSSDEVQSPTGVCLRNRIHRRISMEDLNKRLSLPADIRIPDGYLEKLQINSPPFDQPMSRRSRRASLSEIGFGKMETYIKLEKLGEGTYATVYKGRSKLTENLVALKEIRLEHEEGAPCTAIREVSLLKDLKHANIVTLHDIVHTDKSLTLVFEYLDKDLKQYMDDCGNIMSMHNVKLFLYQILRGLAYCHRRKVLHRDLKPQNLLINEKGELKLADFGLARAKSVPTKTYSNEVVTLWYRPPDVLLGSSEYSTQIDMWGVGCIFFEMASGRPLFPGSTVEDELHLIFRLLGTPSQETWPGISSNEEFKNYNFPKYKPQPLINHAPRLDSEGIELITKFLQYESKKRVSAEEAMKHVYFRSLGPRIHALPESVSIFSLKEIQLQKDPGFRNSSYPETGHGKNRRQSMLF
Sequence of CDK17/Cyclin Y (Q8ND76 whole entry partner): as the sequence (Q8ND76 whole entry partner) above
Sequence of CDK4/Cyclin D1 (P11802 whole entry): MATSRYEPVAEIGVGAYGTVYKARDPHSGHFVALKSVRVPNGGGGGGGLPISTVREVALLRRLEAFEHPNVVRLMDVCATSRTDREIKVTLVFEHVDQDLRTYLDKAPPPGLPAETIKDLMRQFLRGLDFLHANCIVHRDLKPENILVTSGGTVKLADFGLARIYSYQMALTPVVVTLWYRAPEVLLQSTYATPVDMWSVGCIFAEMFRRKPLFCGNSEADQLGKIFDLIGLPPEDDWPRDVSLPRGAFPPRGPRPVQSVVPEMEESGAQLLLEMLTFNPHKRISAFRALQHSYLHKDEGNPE
Sequence of CDK4/Cyclin D1 (P24385 whole entry partner): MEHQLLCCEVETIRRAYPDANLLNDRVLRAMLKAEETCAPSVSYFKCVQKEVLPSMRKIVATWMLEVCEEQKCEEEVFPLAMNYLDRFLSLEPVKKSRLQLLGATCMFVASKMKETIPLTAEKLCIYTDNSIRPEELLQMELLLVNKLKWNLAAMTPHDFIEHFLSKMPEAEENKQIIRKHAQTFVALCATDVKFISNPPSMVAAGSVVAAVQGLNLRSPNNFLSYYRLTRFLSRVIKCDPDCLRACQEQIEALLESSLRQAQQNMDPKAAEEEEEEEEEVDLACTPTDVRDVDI
Sequence of CDK6/Cyclin D1 (Q00534 whole entry): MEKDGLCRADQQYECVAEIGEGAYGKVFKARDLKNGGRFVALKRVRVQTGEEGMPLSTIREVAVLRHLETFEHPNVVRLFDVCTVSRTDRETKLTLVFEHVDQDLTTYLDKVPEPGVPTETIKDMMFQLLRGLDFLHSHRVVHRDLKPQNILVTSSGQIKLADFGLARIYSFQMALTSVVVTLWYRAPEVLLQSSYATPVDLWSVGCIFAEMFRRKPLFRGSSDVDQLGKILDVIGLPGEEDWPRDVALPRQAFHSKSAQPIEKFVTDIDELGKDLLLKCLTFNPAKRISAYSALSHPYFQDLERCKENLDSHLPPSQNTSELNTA
Sequence of CDK6/Cyclin D1 (P24385 whole entry partner): as the sequence (P24385 whole entry partner) above
Sequence of CDK7 (P50613 whole entry): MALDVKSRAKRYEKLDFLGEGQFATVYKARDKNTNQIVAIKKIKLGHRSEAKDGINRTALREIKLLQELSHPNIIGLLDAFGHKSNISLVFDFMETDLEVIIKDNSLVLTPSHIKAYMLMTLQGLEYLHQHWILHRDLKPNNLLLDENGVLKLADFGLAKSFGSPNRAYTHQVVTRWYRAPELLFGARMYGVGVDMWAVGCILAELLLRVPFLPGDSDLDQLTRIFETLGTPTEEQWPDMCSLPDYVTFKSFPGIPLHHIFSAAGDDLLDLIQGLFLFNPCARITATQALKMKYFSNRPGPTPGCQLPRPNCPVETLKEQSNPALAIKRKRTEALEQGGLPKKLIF
Sequence of CDK5/CDK5R1 (Q00535 whole entry): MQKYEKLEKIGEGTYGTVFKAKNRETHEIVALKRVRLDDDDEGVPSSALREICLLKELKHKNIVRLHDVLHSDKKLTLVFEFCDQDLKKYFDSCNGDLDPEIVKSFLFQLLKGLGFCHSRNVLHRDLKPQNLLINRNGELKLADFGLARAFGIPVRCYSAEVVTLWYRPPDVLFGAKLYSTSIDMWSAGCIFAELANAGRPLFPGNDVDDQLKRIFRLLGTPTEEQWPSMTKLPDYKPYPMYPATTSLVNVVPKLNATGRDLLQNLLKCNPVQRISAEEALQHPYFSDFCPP
Sequence of CDK5/CDK5R1 (Q15078 whole entry partner): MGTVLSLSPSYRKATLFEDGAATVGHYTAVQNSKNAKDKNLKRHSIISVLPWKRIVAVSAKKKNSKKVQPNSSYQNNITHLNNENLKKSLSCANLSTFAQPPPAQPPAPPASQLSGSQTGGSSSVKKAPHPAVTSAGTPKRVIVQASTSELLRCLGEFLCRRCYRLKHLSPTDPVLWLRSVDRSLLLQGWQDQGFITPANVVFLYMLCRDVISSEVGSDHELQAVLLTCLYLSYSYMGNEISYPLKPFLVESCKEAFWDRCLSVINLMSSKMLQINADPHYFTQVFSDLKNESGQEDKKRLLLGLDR
Sequence of CDK10/Cyclin L2 (Q15131 whole entry): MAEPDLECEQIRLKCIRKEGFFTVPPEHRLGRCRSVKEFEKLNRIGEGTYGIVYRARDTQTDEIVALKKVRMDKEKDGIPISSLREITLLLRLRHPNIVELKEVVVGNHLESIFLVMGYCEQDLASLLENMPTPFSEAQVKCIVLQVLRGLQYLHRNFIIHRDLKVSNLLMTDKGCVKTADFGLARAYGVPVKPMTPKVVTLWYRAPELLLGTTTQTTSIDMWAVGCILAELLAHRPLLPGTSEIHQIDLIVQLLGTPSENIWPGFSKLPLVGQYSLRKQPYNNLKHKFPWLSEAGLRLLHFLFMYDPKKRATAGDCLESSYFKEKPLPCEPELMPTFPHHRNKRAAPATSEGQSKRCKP

## CS(=O)(=O)N1CCC(NC(=O)c2[nH]ncc2NC(=O)c2c(Cl)cccc2Cl)CC1 [NVP-LCQ195]
CDK7; average (± SEM where n=3)
  IC50: 69 nM
CDK7; experiment 1
  Inhibition at 10µM (%): 86.7%
  IC50: 68 nM
CDK7; experiment 2
  Inhibition at 10µM (%): 89.1%
  IC50: 70 nM
CDK2/Cyclin E1
  Inhibition at 10µM (%): 99.5% and 98.9%
CDK6/Cyclin D1; average
  Inhibition at 10µM (%): 99.2%
CDK6/Cyclin D1; average (± SEM where n=3)
  IC50: 15 nM
CDK6/Cyclin D1; experiment 1
  Inhibition at 10µM (%): 98.6%
  IC50: 18 nM
CDK6/Cyclin D1; experiment 2
  Inhibition at 10µM (%): 99.9%
  IC50: 12 nM
CDK8/Cyclin C; average
  Inhibition at 10µM (%): 31.8%
CDK8/Cyclin C; experiment 1
  Inhibition at 10µM (%): 33.3%
CDK8/Cyclin C; experiment 2
  Inhibition at 10µM (%): 30.3%
CDK5/CDK5R1; average
  Inhibition at 10µM (%): 93.1%
CDK5/CDK5R1; average (± SEM where n=3)
  IC50: 31 nM
CDK5/CDK5R1; experiment 1
  Inhibition at 10µM (%): 90.4%
  IC50: 37 nM
CDK5/CDK5R1; experiment 2
  Inhibition at 10µM (%): 95.7%
  IC50: 25 nM
CDK12/Cyclin K; average
  Inhibition at 10µM (%): 24.3%
CDK12/Cyclin K; experiment 1
  Inhibition at 10µM (%): 26.4%
CDK12/Cyclin K; experiment 2
  Inhibition at 10µM (%): 22.1%
CDK4/Cyclin D1; average
  Inhibition at 10µM (%): 94.3%
CDK4/Cyclin D1; average (± SEM where n=3)
  IC50: 15 nM
CDK4/Cyclin D1; experiment 1
  Inhibition at 10µM (%): 100.8%
  IC50: 19 nM
CDK4/Cyclin D1; experiment 2
  Inhibition at 10µM (%): 87.9%
  IC50: 11 nM
CDK19/Cyclin C; average
  Inhibition at 10µM (%): 37.8%
CDK19/Cyclin C; experiment 1
  Inhibition at 10µM (%): 38.7%
CDK19/Cyclin C; experiment 2
  Inhibition at 10µM (%): 37.0%
CDK15/Cyclin Y; average
  Inhibition at 10µM (%): 92.4%
CDK15/Cyclin Y; average (± SEM where n=3)
  IC50: 380 nM
CDK15/Cyclin Y; experiment 1
  Inhibition at 10µM (%): 93.0%
  IC50: 531 nM
CDK15/Cyclin Y; experiment 2
  Inhibition at 10µM (%): 91.9%
  IC50: 220 nM
CDK16/Cyclin Y; average (± SEM where n=3)
  IC50: 13 nM
CDK16/Cyclin Y; experiment 1
  Inhibition at 10µM (%): 92.7%
  IC50: 11 nM
CDK16/Cyclin Y; experiment 2
  Inhibition at 10µM (%): 92.6%
  IC50: 14 nM
CDK17/Cyclin Y; average
  Inhibition at 10µM (%): 92.4%
CDK17/Cyclin Y; average (± SEM where n=3)
  IC50: 11 nM
CDK17/Cyclin Y; experiment 1
  Inhibition at 10µM (%): 92.3%
  IC50: 14 nM
CDK17/Cyclin Y; experiment 2
  Inhibition at 10µM (%): 92.4%
  IC50: 7.7 nM
CDK10/Cyclin L2; average
  Inhibition at 10µM (%): 70.2%
CDK10/Cyclin L2; experiment 1
  Inhibition at 10µM (%): 74.4%
CDK10/Cyclin L2; experiment 2
  Inhibition at 10µM (%): 66.1%
CDK18/Cyclin Y; average
  Inhibition at 10µM (%): 97.0%
CDK18/Cyclin Y; average (± SEM where n=3)
  IC50: 240 nM
CDK18/Cyclin Y; experiment 1
  Inhibition at 10µM (%): 93.5%
  IC50: 310 nM
CDK18/Cyclin Y; experiment 2
  Inhibition at 10µM (%): 100.6%
  IC50: 166 nM
CDK11B/Cyclin L2; average
  Inhibition at 10µM (%): 94.8%
CDK11B/Cyclin L2; average (± SEM where n=3)
  IC50: 37 nM
CDK11B/Cyclin L2; experiment 1
  Inhibition at 10µM (%): 95.4%
  IC50: 35 nM
CDK11B/Cyclin L2; experiment 2
  Inhibition at 10µM (%): 94.2%
  IC50: 39 nM
CDK1/Cyclin E1; average
  Inhibition at 10µM (%): 92.5%
CDK1/Cyclin E1; average (± SEM where n=3)
  IC50: 83 nM
CDK1/Cyclin E1; experiment 1
  Inhibition at 10µM (%): 94.8%
  IC50: 58 nM
CDK1/Cyclin E1; experiment 2
  Inhibition at 10µM (%): 90.2%
  IC50: 108 nM
CDK3/Cyclin E1; CDK3/E1, average
  Inhibition at 10µM (%): 97.9%
CDK3/Cyclin E1; CDK3/E1, average (± SEM where n=3), read-out: IC50
  IC50: 36 nM
CDK3/Cyclin E1; CDK3/E1, experiment 1
  Inhibition at 10µM (%): 98.1%
CDK3/Cyclin E1; CDK3/E1, experiment 1, read-out: IC50
  IC50: 36 nM
CDK3/Cyclin E1; CDK3/E1, experiment 2
  Inhibition at 10µM (%): 97.6%
CDK3/Cyclin E1; CDK3/E1, experiment 2, read-out: IC50
  IC50: 36 nM
CDK3/Cyclin E1; live HEK-293, 2 h, mean ± S.E.M. (n=3) or mean (n=2), read-out: IC50 for CDK/cyclin complexes, CDK3/E1
  IC50: 36 nM
CDK20/Cyclin H; experiment 1
  Inhibition at 10µM (%): 26.0%
CDK20/Cyclin H; experiment 2
  Inhibition at 10µM (%): 16.0%
CDK14/Cyclin Y; average
  Inhibition at 10µM (%): 90.1%
CDK14/Cyclin Y; average (± SEM where n=3)
  IC50: 470 nM
CDK14/Cyclin Y; experiment 1
  Inhibition at 10µM (%): 90.7%
  IC50: 607 nM
CDK14/Cyclin Y; experiment 2
  Inhibition at 10µM (%): 89.6%
  IC50: 330 nM
CDK13/Cyclin K; average
  Inhibition at 10µM (%): 20.5%
CDK13/Cyclin K; experiment 1
  Inhibition at 10µM (%): 29.4%
CDK13/Cyclin K; experiment 2
  Inhibition at 10µM (%): 11.5%
